Holding throughout (type): ADME, organism-based
What all share (set-up): dose 750 mg/kg, route oral
Conditions in all cases: in vivo; call rule not given here

Series [1] can be described thus: Drug excretion in Wistar rat urine at 750 mg/kg, po after 12 hrs by HPLC-UV analysis.
Series [2] in a line: Drug excretion in Wistar rat feces at 750 mg/kg, po after 12 hrs by HPLC-UV analysis.
Series [3] in a line: Drug metabolism in Wistar rat urine/feces treated with 750 mg/kg, po of 5,7,4'-trimethoxyflavone by LC-MS and LC-MS/MS analysis.
Series [4] is described as follows: Drug metabolism in Wistar rat urine/feces treated with 750 mg/kg, po of 5,7-dimethoxyflavone by LC-MS and LC-MS/MS analysis.
The nature of series [5]: Drug metabolism in Wistar rat urine/feces treated with 750 mg/kg, po of 3,5,7,4'-tetramethoxyflavone by LC-MS and LC-MS/MS analysis.
A short description of series [6]: Drug metabolism in Wistar rat urine/feces treated with 750 mg/kg, po of 3,5,7,3',4'-pentamethoxyflavone by LC-MS and LC-MS/MS analysis.

These results are taken from ChEMBL document CHEMBL3526121, “Pharmacokinetics, bioavailability, tissue distribution, excretion, and metabolite identification of methoxyflavones in Kaempferia parviflora extract in rats” (Drug Metab Dispos, 2012).

Molecules are shown by their SMILES.

`COc1cc(O)c2c(=O)c(OC)c(-c3ccccc3)oc2c1`: the Drug excretion entry in series [1] and in series [2] was “Active” in each case.
Take `COc1ccc(-c2cc(=O)c3c(O)cc(OS(=O)(=O)O)cc3o2)cc1`: in series [3], the Drug metabolism result is listed as “metabolite_detected”.
Same read-out and setting: with `COc1ccc(-c2cc(=O)c3c(OS(=O)(=O)O)cc(OC)cc3o2)cc1` the entry was “metabolite_detected”.
As to `COc1cc(OS(=O)(=O)O)c2c(=O)cc(-c3ccccc3)oc2c1`, the Drug metabolism result in series [4] was “metabolite_detected”.
For the molecule `COc1ccc(-c2oc3cc(OC)cc(O)c3c(=O)c2O)cc1`, in series [5], the Drug metabolism entry is on record as “metabolite_detected”.
Consider `COc1cc(OC)c2c(=O)c(OC)c(-c3ccc(OC)c(O)c3)oc2c1`, for which the Drug metabolism entry in series [6] was “metabolite_detected”.
`COc1ccc(-c2oc3cc(OC)cc(O)c3c(=O)c2OC)cc1`: the Drug excretion result in series [1] and in series [2] was “Active” in each case.
For `COc1cc(O)c2c(=O)c(OC)c(-c3ccc(OC)c(O)c3)oc2c1` [AYANIN], the Drug metabolism entry in series [6] is on record as “metabolite_detected”.
